Here are results for two molecules from US20220040141A1, “ULTRAPURE PHENOL COMPOSITIONS” (priority 2018, published 2022).

Data set [1] in a line: Physical properties of CBD and its oil compositions. The class given is physicochemical. As to conditions: isolate powder, about 99% pure CBD. An excerpt: The highest purity CBD is known as an isolate. The clear oil, or distillate, goes through another purification process, where it is converted into powder using a solvent, for example, hexane, at low heat.
(§1) By mixing with fractionated coconut oil, or medium-chain triglyceride (MCT), a stable emulsion can be formed, which simplifies oral administration of CBD. Some products can mix the full spectrum CBD oil with alcohol or MCT oil, which is known as a tincture. […] For example, a batch of CBD/MCT oil was made using a ratio of 100 mg/ml, which allowed delivery as a spray to the mouth of 20 mg CBD per spray (one spray per serving). In another experiment, a second batch of oil targeted at 33 mg/ml, which targeted 6-7 mg per spray (2-3 sprays per serving). Performance can continue to be less impressive than the CBD powder.

A short description of data set [2]: Earlier CBD products (isolate powder, liquid CBD/vitamin E mixture, MCT emulsion) as used orally. The class given is in vivo. As to conditions: particularly relieving stiffness in joints.
Text: Prior to preparing the compositions described herein, other CBD products were made, which include food products, including beverages, and mixtures with multiple components, such as an oil/liquid form that is taken directly from a dropper. The products can be flavored. A CBD isolate powder, which is a high purity CBD, can have powerful, and instant benefits. A water soluble CBD/vitamin E mixture can be included in food and drink such as cold pressed juice. […] However, the powder was difficult to work with and dose.
as §1

For data set [3] the following is noted: increase of 1 mMol in plasma caprylic acid levels; cited from earlier work.

The structures appear in SMILES notation.

Consider `C=C(C)[C@@H]1CCC(C)=C[C@H]1c1c(O)cc(CCCCC)cc1O` [CBD isolate powder, cannabidiol], for which the water solubility entry in data set [1] is on record as “not water soluble”. In data set [2], the anti-inflammatory effect entry is “exhibited anti-inflammatory properties”.

`CCCCCCCC(=O)O` [caprylic acid]: the “increase of ketone body production” value in data set [3] is recorded as “five-fold”.
